Details of data set [1]: method as in PMID 26392221. The following applies: cited from earlier work.
In data set [2] the test system is GBM22 cells. Description: Cerebral brain organoid-GBM co-culture, proliferation and invasion. The format is cell-based, human. Particulars: 9 days co-culture; JQ1 500 nM, MK-8628 1000 nM, UM-002 100 nM. The source says: On day 0 of organoid production, induced pluripotent stem cells (iPSCs), at ~ 80% confluence, were dissociated into small clumps with gentle cell dissociation reagent (StemCell Technologies, 07174) and plated into round-bottom, low-attachment 96 well plates (ThermoFisher, 174925; ~ 15,000 cells per well). Initial media, consisting of mTeSR Plus (Stem Cell Technologies, 05825) supplemented with 5 µm A-83 (Peprotech, 9094360) and 5 µm Dorsomorphin (Peprotech, 8666430), was replaced every other day starting at day 2 by removing half of the media in each well (100 µL) and replacing with fresh media three times. On day 8, media was changed to a base media of Neurobasal A media (Gibco, 10888022) with NeuroCult SM1 (StemCell Technologies, 05711), glutamax (Gibco, 35050061), and Pen/strep (Gibco, 15140122) supplemented with EGF (20 ng/ml; Alomone Labs, E-100) and FGF2 (20 ng/ml; Alomone Labs, F-170). Media was similarly exchanged every other day until day 20 when the mitogenic supplements were exchanged for differentiating factors: BDNF (20 ng/ml; Alomone Labs, B-250) and NT3 (20 ng/ml; Alomone Labs, N-260) in the same base media. After two weeks in differentiation media, organoids could be maintained in the base media for > 100 days[41]. […]

Data set [3] concerns GBM22 cells. As to the kind of experiment: In vitro dose response, CellTiter-Glo ATP, GBM22. The format is cell-based. Particulars: Homo sapiens, 72 h. On the procedure: (§1) Figure 1 UM-002 reduces GBM cell proliferation in vitro. (A) Structure of UM-002. […] Reduction in ATP levels was measured using CellTiter-Glo after 72 h of compound treatment and luminescence was normalized to the positive control. Dose response curves were calculated using a variable slope (4 parameters) fit. EC50 and the percentage of positive control at EC50 was calculated for each compound.
(§2) The patient derived xenograft (PDX) glioblastoma cell lines, GBM22 and GBM39, were obtained from the Mayo Clinic Brain Tumor PDX national resource. Cells were cultured as previously described[39],[40]. Since genetic drift is known to occur with passage in vivo and in vitro, a stock of early passage tumor tissue is maintained in storage and xenograft lines are passaged a maximum of 20 times before restoration from early passage tissue. […]
(§3) PDX cells were plated at 3000 cells/well in a 384 well flat bottom plate, and adherent cultures were established overnight. […] Following a 72-h incubation, CellTiter-Glo (Promega, Wisconsin, USA) was used to measure ATP content and luminescence was read on an EnVision plate reader, as previously described. Luminescence was normalized to 10 µM Velcade as a positive control, and 0.1% DMSO as a negative control. Dose response curves were calculated in GraphPad PRISM (version 8.4.3) using a variable slope (four parameter) fit.
In general terms: Cellular ATP, detected with luciferase, serves as a proxy for viable cell number.

The test system of the next data set is GBM39 cells. Description: In vitro dose response, CellTiter-Glo ATP, GBM39. Particulars: Homo sapiens. The format is cell-based. As to the method:
as §1, §2, §3

In the next data set the test system is cerebral brain organoids. Description: Brain organoid viability (organoid volume and surface area) in co-culture. The format is cell-based, human. The following applies: 9 days; JQ1 500 nM, MK-8628 1000 nM, UM-002 100 nM.
The next data set deals with recurrent GBM. More on the design: method as in doi:10.1200/JCO.2016.34.15_suppl.e14123. The following applies: 12 recurrent GBM patients, study terminated; cited from earlier work.

Molecules are shown by their SMILES. Like-named read-outs stand apart in the source and are kept apart here.

Protocol for cerebral brain organoids: GBM22 cells were dissociated into a single cell suspension with Trypsin (Gibco, 15,400,054) and seeded (17,500 cells/well) into round-bottom, low-attachment 96-well plates containing a single mature organoid per well. Cells were seeded by removing 100 µL of media and replacing with 100 µL of cell suspension. GBM cells were allowed to settle around the organoid and attach overnight. After 24 h (day 1 of co-culturing) organoids were either fixed (see below) and stored in PBS as an untreated control or treated with compounds. For treatment, compounds were dissolved in DMSO and diluted in organoid maintenance media. […] On the first day of treatment, organoids were treated by removing half of the media (100 µL) and replacing with 100 µL of a 2 × compound solution. Compounds were renewed with 1 × solutions in the new media every other day following the normal media replacement regimen until the conclusion of the experiment.
Statistical comparisons performed using an unpaired, two-tailed t test or one-way ANOVA with Tukey HSD post-hoc.

Turning to `CC(=O)N1c2ccc(-c3ccc(CN4CCCCC4)cc3)cc2[C@H](Nc2ccccc2)C[C@H]1C` [I-BET858], in data set [1], the Phenotype in mice entry is “autism spectrum disorder phenotype”.

Turning to `Cc1sc2c(c1C)C(c1ccc(Cl)cc1)=N[C@@H](CC(=O)Nc1ccc(O)cc1)c1nnc(C)n1-2` [MK-8628], in the data set with GBM22 cells [2], the “Number of invading GBM cells relative to DMSO control” value is “reduced”. Moreover, the “Total number of GBM cells relative to DMSO control” value in the data set on GBM22 cells [2] is listed as “reduced”. In addition, the EC50 was 1.39 µM in the data set with GBM22 cells [3] (read-out: GBM22 logEC50 (converted)); 1.39 µM with GBM22 cells [3] (CellTiter-Glo, 4 parameter fit, read-out: GBM22 EC50); 0.813 µM with GBM39 cells (GBM39, 72 h, read-out: GBM39 logEC50 (converted)); 0.812 µM in the data set on GBM39 cells (GBM39, 72 h, CellTiter-Glo, 4 parameter fit, read-out: GBM39 EC50). The “Brain organoid viability, as determined by organoid volume and surface area” value in the data set on cerebral brain organoids is “did not negatively impact”. For the same compound, the Progression-free survival result in the data set with recurrent GBM was “no increase in progression-free survival”.

The values above are taken from article PMC8642539, “The novel BET inhibitor UM-002 reduces glioblastoma cell proliferation and invasion” (Scientific Reports, 2021).
